According to paper PMC11345766, “Computational Design of Pore-Forming Peptides with Potent Antimicrobial and Anticancer Activities” (Journal of Medicinal Chemistry, 2024):

Key:
[1] = tested on: cytoplasmic membranes of ESKAPEE pathogens; experiment: Cytoplasmic membrane depolarization assay, DiSC3-(5); type: cell-based; conditions: both Gram-negative and Gram-positive bacteria; peptides at their MICs
Procedure: First, we investigated the ability of the peptides to depolarize the cytoplasmic membranes of ESKAPEE pathogens. […] Bacteria were incubated with 3,3′-dipropylthiadicarbocyanine iodide [DiSC3-(5)] dye, and the dye fluorescence was measured after peptide treatment. DiSC3-(5) is sensitive to transmembrane potential changes. It accumulates in the cytoplasmic membrane with quenched fluorescence, and when the membrane potential becomes unbalanced, the dye molecules translocate to the outside environment, resulting in increased fluorescence.[56] The three potent AMPs (LP1, LP18, and LP28) and the H-variant (LP40) depolarized the cytoplasmic membrane of both Gram-negative and Gram-positive bacteria at their MICs.
The cytoplasmic membrane depolarization activity of the peptides was determined by measuring the fluorescence of membrane-potential-sensitive dye DiSC3-(5). A. baumannii ATCC 19606, E. coli ATCC 11775, K. pneumoniae ATCC 13883, P. aeruginosa PAO1, S. aureus ATCC 12600, and E. faecium ATCC 700221 were grown to mid log phase (OD600 = 0.5) at 37 °C and then centrifuged (10,000 rpm at 4 °C for 10 min). Cells were washed twice with a buffer containing 20 mM glucose and 5 mM HEPES (pH 7.2) and diluted 1:10 (OD600 = 0.05) in a buffer with 0.1 M KCl, […], and 5 mM HEPES (pH 7.2). Fluorescence was recorded at the excitation and emission wavelengths of 622 and 670 nm, respectively. Bacterial solution (100 μL) was incubated for 15 min with 20 nM of DiSC3-(5) until fluorescence reached a plateau. Changes in transmembrane potential were monitored by observing the difference in fluorescence emission intensity after adding peptides (100 μL at their MICs) for 45 min. Assay was performed in triplicate.

S. carnosus (CCM 4838T) = experiment: microbe, parasite or virus in culture; type: cell-based, Staphylococcus carnosus; conditions: CCM 4838, 24 h; read-out: Antimicrobial activity (MIC) S. carnosus (CCM 4838T)
Summary of the method: (§1)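 Bacteria were grown on MHA for 24 h, subcultured in MHB for 6 h at 37 °C and diluted to 10^6 CFU/mL. Compounds were serially diluted from 50 to 0.1 μM, inoculated and incubated for 24 h at 37 °C. MIC was the lowest concentration with no visible turbidity.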

[2] = tested on: A. baumannii (ATCC 19606); experiment: Neutropenic murine deep thigh infection model; type: in vivo, mouse; conditions: single intraperitoneal dose at 10 times the MIC; four days after treatment
Text: Mice were euthanized 4 days postinfection (day 8).
Each experimental group comprised three mice.

E. faecium (ATCC 700221) = conditions: resistant to vancomycin
Text: (§2) The effect of net charge was further investigated against six reference strains of ESKAPEE pathogens (Figure 3b).

E. coli AIC221 = conditions: Figure 3c
Text: as §2

[3] = single intraperitoneal dose at 10 times the MIC
Procedure: Neutropenic mice were infected intramuscularly (in the right thigh) with 10^6 cells per mL of Gram-negative A. baumannii (ATCC 19606).
(a) Schematic of the deep thigh infection model in which bacteria are injected intramuscularly at day 4 and peptides are administered intraperitoneally also at day 4 to assess their anti-infective activity. Mice were euthanized 4 days postinfection (day 8). Each group consisted of six mice (n = 6), and the bacterial loads used to infect the mice derived from three different inocula. […] Polymyxin B (0.006 mg/kg) and levofloxacin (0.014 mg/kg) were used as the reference antibiotics. Statistical significance was done using one-way ANOVA followed by Dunnett’s test. Violin plots represent the median, upper quartile, and lower quartile. (c) Mouse weight was monitored to exclude possible toxic effects of the peptides.
Six-week-old female CD-1 mice (obtained from Charles River; stock number 18679700-022) underwent neutropenia induction via two intraperitoneal doses of cyclophosphamide (150 mg kg^–^1) administered with a 72 h interval. One day later, the mice received an intramuscular injection containing A. baumannii ATCC 19606 (10^6 CFU mL^–1) in the right thigh. Bacteria were cultured in LB broth, washed twice with PBS (pH 7.4), and resuspended to the desired concentration. […] Polymyxin B (0.006 mg/kg) and levofloxacin (0.014 mg/kg) were used as the reference antibiotics. Prior to each injection, mice were anesthetized with isoflurane and their respiratory rate and pedal reflexes were monitored. Subsequently, we observed the infection establishment and euthanized the mice. The infected area was excised 4 days postinfection (i.e., 8 days after the beginning of the experiment), homogenized using a bead beater for 20 min (25 Hz), and 10-fold serially diluted for CFU quantification on MacConkey agar plates. Each experimental group comprised three mice. All experiments were conducted blindly, and no animals were excluded from the analysis. Statistical significance was assessed using one-way ANOVA followed by Dunnett’s test on log10-transformed data to mitigate outlier effects; p values are reported for each group, with all groups compared to the untreated control group.

[4] = tested on: A. baumannii (ATCC 19606); conditions: clinically relevant strain
Text: as §2

[5] = Calcein dye leakage assay from LUVs; type: biochemical; conditions: P:L 1:100; pH 7.4
Text: To verify the pore-forming mechanism of action of the designed AMPs, we performed a calcein leakage assay. […] These lipid vesicles were used as simple mimics of bacterial membranes.[58] At the lowest tested peptide-to-lipid (P:L) ratio of 1:100 (mol/mol), three mutants (LP18, LP26, and LP40) caused >90% leakage, which was higher than the leakage caused by LP1 (87%). […] At the same concentration, LP23 caused leakage equivalent to that caused by LP1. Other mutants had lower leakage activity. At a higher P:L ratio of 1:50, all the abovementioned mutants caused 100% leakage, equivalent to that caused by LP1.
Pore-forming activity was tested using a dye leakage assay measuring the leakage of self-quenching fluorescent dye calcein from POPC:POPG (1:1 mol/mol) LUVs. DiD was mixed with lipids (1:500 mol/mol), and lipid film was created by evaporating chloroform, followed by 4 h of desiccation. Dried lipid film was dissolved in calcein buffer (35 mM calcein, 25 mM NaH2PO4·H2O and Na2HPO4·7H2O (3:7 mol/mol), 20 mM NaCl, and 1 mM EDTA). After 10 freeze–thaw cycles, the sample was extruded 50 times through a 100 nm pore size polycarbonate membrane filter. Free calcein in solution was removed using a HiTrap Desalting column. The concentrations of LUVs and peptides were adjusted to 0.02 and 0.1 mM, respectively, in PBS (25 mM NaH2PO4·H2O and Na2HPO4·7H2O (3:7 mol/mol), 100 mM NaCl, and 1 mM EDTA). The investigated P/L ratio was from 1:100 to 1:10 (mol/mol). Fluorescence intensity was measured using a HORIBA Scientific Jobin Yvon FluoroLog-3 Modular Spectrofluorometer (USA). Excitation and emission wavelengths were set to 495 and 520 nm, respectively. Triton X-100 10% caused 100% leakage used for normalization.

[6] = tested on: murine macrophages RAW 264.7; conditions: 24 h
Procedure: Cytotoxicity against human immortalized keratinocytes HaCaT, human alveolar basal epithelial A549 (derived from adenocarcinoma), and murine macrophages RAW 264.7 was tested using MTT [3-(4,5-dimethylthiazol-2-yl)-2,5-diphenyltetrazolium bromide] assay. Cells were cultured in Dulbecco’s modified Eagle’s medium (DMEM) containing 4 mM glutamine for HaCaT, or 2 mM glutamine for A549 and RAW 264.7 cells, supplemented with 10% heat-inactivated fetal bovine serum (FBS) and antibiotics (0.1 mg/mL penicillin and streptomycin). Nonessential amino acids (NEAA) and sodium pyruvate (1 mM) were added for macrophages. Cell lines were grown in 25 and 75 cm^2 flasks at 37 °C in a humidified atmosphere with 5% CO2. Cells were suspended in DMEM, containing glutamine, NEAA, and sodium pyruvate (as described above), supplemented with 2% FBS, plated in 96-well plates at 4 × 10^4 cells/well, and incubated at 37 °C in a 5% CO2 atmosphere. After overnight incubation, the medium was replaced with fresh DMEM supplemented with peptides at different concentrations: 2, 4, 8, 16, 32, 64, and 128 μM. Negative controls were cells without peptides. After 24 h of peptide treatment at 37 °C in a 5% CO2 atmosphere, medium was replaced with Hank’s buffer (136 mM NaCl, 0.34 mM Na2HPO4, 0.44 mM KH2PO4, 5.4 mM KCl, 4.1 mM NaHCO3, supplemented with 5.5 mM D-glucose) containing 0.5 mg/mL MTT. Mitochondrial dehydrogenases converted soluble yellow dye MTT to insoluble purple formazan. After 4 h of incubation, acidified isopropanol was added to dissolve formazan crystals and measured for OD570 using Tecan microplate reader Infinite M200 (Salzburg, Austria).

A. baumannii (Z13) = conditions: Z13, 18 h
E. coli (TOP10) = experiment: Broth microdilution antimicrobial susceptibility assay; type: cell-based, Escherichia coli; conditions: 24 h, MHB
Summary of the method: as §1

H-KKKKKLKKILKKLFQFINQLDNQLQDIKKKKK-OH [LP28]
Depolarization of the cytoplasmic membrane [1]: depolarized
MIC (S. carnosus (CCM 4838T)): 0.4 µM
Reduction of bacterial load [2]: did not significantly reduce the bacterial load
MIC (E. faecium (ATCC 700221)): 0.8 µM
MIC (E. coli AIC221): 0.8 µM
Change in mouse weight [3]: no significant change in mouse weight
MIC [4]: 0.8 µM
Calcein leakage (%) from LUVs at P:L 1:100 (mol/mol) [5]: 74.0 ± 6.7%
IC50 [6]: 31 µM
MIC (A. baumannii (Z13)): 1 µM
MIC (E. coli (TOP10)): 0.4 µM
